In patent US20140243335A1, “SUBSTITUTED HYDOXAMIC ACIDS AND USES THEREOF” (Millennium Pharmaceuticals, Inc., priority 2010, published 2014) one finds inhibition data, which are given here for 26 compounds.

Usually inhibition stands for the drop in the measured response relative to a control, in per cent.

Molecules are shown by their SMILES.

The target in the experiment is T1, purified human HDAC6 (Homo sapiens, UniProt Q9UBN7).
T1 construct: purchased BPS Bioscience 5006
T1 sequence (Q9UBN7 1-1215): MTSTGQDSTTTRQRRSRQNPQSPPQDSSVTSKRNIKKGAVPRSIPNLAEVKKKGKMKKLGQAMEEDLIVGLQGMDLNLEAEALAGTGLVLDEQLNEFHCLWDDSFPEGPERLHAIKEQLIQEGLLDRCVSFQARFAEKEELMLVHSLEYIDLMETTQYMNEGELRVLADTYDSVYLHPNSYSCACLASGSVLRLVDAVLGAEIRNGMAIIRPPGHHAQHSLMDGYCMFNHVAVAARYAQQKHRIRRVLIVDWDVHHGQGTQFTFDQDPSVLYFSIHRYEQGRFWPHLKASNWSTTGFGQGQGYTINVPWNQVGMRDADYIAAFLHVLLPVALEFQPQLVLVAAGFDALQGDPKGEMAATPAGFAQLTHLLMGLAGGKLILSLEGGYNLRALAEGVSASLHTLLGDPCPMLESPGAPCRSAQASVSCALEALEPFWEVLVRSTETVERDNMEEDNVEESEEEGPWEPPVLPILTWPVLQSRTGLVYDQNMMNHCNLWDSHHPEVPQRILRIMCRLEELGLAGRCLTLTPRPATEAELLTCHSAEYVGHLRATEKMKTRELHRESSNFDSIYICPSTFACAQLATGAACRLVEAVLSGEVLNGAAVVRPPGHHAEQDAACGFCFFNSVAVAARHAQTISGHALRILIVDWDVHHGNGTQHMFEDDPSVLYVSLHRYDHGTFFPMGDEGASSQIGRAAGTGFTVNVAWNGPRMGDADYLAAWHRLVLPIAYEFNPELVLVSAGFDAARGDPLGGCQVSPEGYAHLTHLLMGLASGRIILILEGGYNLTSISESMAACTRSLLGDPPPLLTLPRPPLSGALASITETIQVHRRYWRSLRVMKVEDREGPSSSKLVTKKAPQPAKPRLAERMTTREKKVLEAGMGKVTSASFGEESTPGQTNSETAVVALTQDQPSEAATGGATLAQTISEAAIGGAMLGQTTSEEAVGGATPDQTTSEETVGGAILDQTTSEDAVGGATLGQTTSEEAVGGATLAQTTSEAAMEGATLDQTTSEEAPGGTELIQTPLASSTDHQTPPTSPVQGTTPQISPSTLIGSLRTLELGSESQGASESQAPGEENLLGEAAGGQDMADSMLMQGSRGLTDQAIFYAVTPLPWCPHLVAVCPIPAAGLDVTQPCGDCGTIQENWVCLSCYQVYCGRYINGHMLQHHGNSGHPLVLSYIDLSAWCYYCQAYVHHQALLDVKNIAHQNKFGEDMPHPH
The experiment can be described thus: HDAC6 Enzyme Assay. Conditions: HDAC6 inhibition at a compound concentration of 0.412 μM; read-out: Percent Inhibition at 0.412 μM. Type of experiment: biochemical. How it is done:
To measure the inhibition of HDAC6 activity, purified human HDAC6 (BPS Bioscience; Cat. No. 5006) is incubated with substrate Ac-Arg-Gly-Lys(Ac)-AMC peptide (Bachem Biosciences; Cat. No. I-1925) for 1 hour at 30° C. in the presence of test compounds or vehicle DMSO control. The reaction is stopped with the HDAC inhibitor trichostatin A (Sigma; Cat. No. T8552) and the amount of Arg-Gly-Lys-AMC generated is quantitated by digestion with trypsin (Sigma; Cat. No. T1426) and subsequent measurement of the amount of AMC released using a fluorescent plate reader (Pherastar; BMG Technologies) set at Ex 340 nm and Em 460 nm. Concentration response curves are generated by calculating the fluorescence increase in test compound-treated samples relative to DMSO-treated controls, and enzyme inhibition (IC50) values are determined from those curves.
For the compound `O=C(NO)c1ccc2c(c1)CCC(NC(=O)C13CC4CC(CC(C4)C1)C3)C2` (centres unmarked) [Compound I-57, N-{6-[(hydroxyamino)carbonyl]-1,2,3,4-tetrahydronaphthalen-2-yl}adamantane-1-carboxamide], the inhibition at 0.412 µM amounted to 59%. For the compound `CN(C)Cc1cc(C(=O)NC2CCc3ccc(C(=O)NO)cc3C2)cc(C(F)(F)F)c1` (centres unmarked) [Compound I-78, 7-{[3-[(dimethylamino)methyl]-5-(trifluoromethyl)benzoyl]amino}-N-hydroxy-5,6,7,8-tetrahydronaphthalene-2-carboxamide], the inhibition at 0.412 µM worked out at 88%. For `O=C(CC1C[C@@H]2CC[C@H]1C2)NC1CCCc2cc(C(=O)NO)ccc21` (stereo partly drawn) [Compound I-26, 5-{[(1S,4R)-bicyclo[2.2.1]hept-2-ylacetyl]amino}-N-hydroxy-5,6,7,8-tetrahydronaphthalene-2-carboxamide] the value was 21%; for `O=C(NO)c1ccc2c(c1)CC(NCc1ccc(Cl)cc1)CC2` (centres unmarked) [Compound I-76, 7-[(4-chlorobenzyl)amino]-N-hydroxy-5,6,7,8-tetrahydronaphthalene-2-carboxamide], 80%; for `CC(C)(C)C(=O)N[C@@H]1CCc2ccc(C(=O)NO)cc2C1` [Compound I-73, (7R)-7-[(2,2-dimethylpropanoyl)amino]-N-hydroxy-5,6,7,8-tetrahydronaphthalene-2-carboxamide], 73%.

Turning to `CCC(C)(C)C(=O)NC1CCCc2cc(C(=O)NO)ccc21` (centres unmarked) [Compound I-15, 5-[(2,2-dimethylbutanoyl)amino]-N-hydroxy-5,6,7,8-tetrahydronaphthalene-2-carboxamide], the inhibition at 0.412 µM stood at 11%. On to `O=C(NO)c1ccc2c(c1)CCCC2NC(=O)c1ccc(-c2ccccc2)cc1` (centres unmarked) [Compound I-34, N-{6-[(hydroxyamino)carbonyl]-1,2,3,4-tetrahydronaphthalen-1-yl}biphenyl-4-carboxamide], for which the inhibition at 0.412 µM turned out to be 2%. For `O=C(NO)c1ccc2c(c1)CCC(c1ccccc1)C2` (centres unmarked) [Compound I-100, N-hydroxy-6-phenyl-5,6,7,8-tetrahydronaphthalene-2-carboxamide] the value was 62%; for `O=C(NO)c1ccc2c(c1)CCC(NC(=O)c1cnn(-c3ccccc3)c1)C2` (centres unmarked) [Compound I-58, N-{6-[(hydroxyamino)carbonyl]-1,2,3,4-tetrahydronaphthalen-2-yl}-1-phenyl-1H-pyrazole-4-carboxamide], 85%. Turning to `CCN1CCC(C)(C(=O)Nc2cc(OC3CCc4cc(C(=O)NO)ccc4C3)ccn2)CC1` (centres unmarked) [Compound I-222, 1-ethyl-N-[4-({6-[(hydroxyamino)carbonyl]-1,2,3,4-tetrahydronaphthalen-2-yl}oxy)pyridin-2-yl]-4-methylpiperidine-4-carboxamide], the inhibition at 0.412 µM was 91%. For the compound `CC(=O)Nc1cccc(C2CCc3ccc(C(=O)NO)cc3C2)c1` (centres unmarked) [Compound I-92, 7-[3-(acetylamino)phenyl]-N-hydroxy-5,6,7,8-tetrahydronaphthalene-2-carboxamide], the inhibition at 0.412 µM worked out at 92%. On to `Cc1ccc(-c2cc(C(=O)NC3CCCc4cc(C(=O)NO)ccc43)[nH]n2)cc1` (centres unmarked) [Compound I-35, N-{6-[(hydroxyamino)carbonyl]-1,2,3,4-tetrahydronaphthalen-1-yl}-3-(4-methylphenyl)-1H-pyrazole-5-carboxamide], for which the inhibition at 0.412 µM turned out to be 74%.

Turning to `COc1cccc2cc(C(=O)NC3CCCc4cc(C(=O)NO)ccc43)oc12` (centres unmarked) [Compound I-33, N-{6-[(hydroxyamino)carbonyl]-1,2,3,4-tetrahydronaphthalen-1-yl}-7-methoxy-1-benzofuran-2-carboxamide], the inhibition at 0.412 µM came out at 62%. Turning to `O=C(NO)c1ccc2c(c1)C1CCC2N1C(=O)Cc1ccccc1` (centres unmarked) [Compound I-211, N-hydroxy-9-(phenylacetyl)-1,2,3,4-tetrahydro-1,4-epiminonaphthalene-6-carboxamide], the inhibition at 0.412 µM is 51%. With `COc1ccccc1-c1cc(C(=O)N[C@H]2CCCc3cc(C(=O)NO)ccc32)[nH]n1` [Compound I-68, N-{(1S)-6-[(hydroxyamino)carbonyl]-1,2,3,4-tetrahydronaphthalen-1-yl}-3-(2-methoxyphenyl)-1H-pyrazole-5-carboxamide], the inhibition at 0.412 µM was 65%. In the case of `O=C(NO)c1ccc2c(c1)CC(Nc1ccncc1)CC2` (centres unmarked) [Compound I-95, N-hydroxy-7-(pyridin-4-ylamino)-5,6,7,8-tetrahydronaphthalene-2-carboxamide] it was 71%; in that of `CCN1CCC(NC(=O)c2cc(OC3CCc4cc(C(=O)NO)ccc4C3)ccn2)CC1` (centres unmarked) [Compound I-227, N-(1-ethylpiperidin-4-yl)-4-({6-[(hydroxyamino)carbonyl]-1,2,3,4-tetrahydronaphthalen-2-yl}oxy)pyridine-2-carboxamide], 95%. For `COc1ccc(C(=O)NC2CCc3cc(C(=O)NO)ccc3C2)cc1` (centres unmarked) [Compound I-61, N-hydroxy-6-[(4-methoxybenzoyl)amino]-5,6,7,8-tetrahydronaphthalene-2-carboxamide] the value was 84%. As to `Cn1cc(-c2cc(C(=O)NC3CCc4ccc(C(=O)NO)cc4C3)cc(C(F)(F)F)c2)cn1` (centres unmarked) [Compound I-79, N-hydroxy-7-{[3-(1-methyl-1H-pyrazol-4-yl)-5-(trifluoromethyl)benzoyl]amino}-5,6,7,8-tetrahydronaphthalene-2-carboxamide], the inhibition at 0.412 µM is 94%.

For `O=C(NO)c1ccc2c(c1)CCCC2NC(=O)c1cc2ccccc2o1` (centres unmarked) [Compound I-45, N-{6-[(hydroxyamino)carbonyl]-1,2,3,4-tetrahydronaphthalen-1-yl}-1-benzofuran-2-carboxamide], the inhibition at 0.412 µM was 47%. As to `CC(C)(C)C(=O)N1C2CCC1c1cc(C(=O)NO)ccc12` (centres unmarked) [Compound I-201, 9-(2,2-dimethylpropanoyl)-N-hydroxy-1,2,3,4-tetrahydro-1,4-epiminonaphthalene-6-carboxamide], the inhibition at 0.412 µM was 29%.

Regarding `CC1(C(=O)N2C3CCC2c2cc(C(=O)NO)ccc23)CCCCC1` (centres unmarked) [Compound I-196, N-hydroxy-9-[(1-methylcyclohexyl)carbonyl]-1,2,3,4-tetrahydro-1,4-epiminonaphthalene-6-carboxamide], the inhibition at 0.412 µM came out at 32%. In the case of `O=C(NO)c1ccc2c(c1)CCCC2NC(=O)c1ccc(C(F)(F)F)cc1` (centres unmarked) [Compound I-20, N-hydroxy-5-{[4-(trifluoromethyl)benzoyl]amino}-5,6,7,8-tetrahydronaphthalene-2-carboxamide] it was 30%. For `CCOC1CCc2ccc(C(=O)NO)cc2C1` (centres unmarked) [Compound I-118, 7-ethoxy-N-hydroxy-5,6,7,8-tetrahydronaphthalene-2-carboxamide] the value was 75%; for `O=C(NO)c1ccc2c(c1)CC(CCc1ccccc1)CC2` (centres unmarked) [Compound I-93, N-hydroxy-7-(2-phenylethyl)-5,6,7,8-tetrahydronaphthalene-2-carboxamide], 74%. As for `Cc1nc(-c2ccccn2)sc1C(=O)N1C2CCC1c1cc(C(=O)NO)ccc12` (centres unmarked) [Compound I-206], the inhibition at 0.412 µM stood at 18%.
